Entries after “also recorded” stand apart in the source; their conditions may differ.
Experiments:
[1] = tested on: Murine whole bone marrow (WBM) cells; experiment: Colony forming Unit Spleen at day 12 (CFU-S12) assay; assay type: in vivo, C57Bl/6 mice; conditions: 10 μM; for CFU-S12 number: WBM
Description: Colony forming Unit Spleen at day 12 (CFU-S12) assays were performed as described in North et al., Nature. 2007 Jun. 21; 447(7147):1007-11. […] After treatment, the cells were washed by centrifugation and resuspended in PBS for tail-vein injection into C57Bl/6 recipients (2×5/treatment) that had been previously lethally irradiated at 10.5Gy. 50,000 cells were injected per recipient. […]

[2] = tested on: CXCR4 cell-surface protein on CD34^+ cord blood cells; experiment: CXCR4 surface expression analysis by flow cytometry; assay type: cell-based, human; conditions: 10 μM; for CD34+ cord blood cells with detectable CXCR4 expression: 2 hours at 37° C.
Description: CD34^+ cord blood cells were treated with 10 μM 16,16-dimethyl PGE2 or DMSO in StemSpan media for 2 hours at 37° C. or for 1 hour at 4° C. After treatment, the cells were washed in StemSpan media, centrifuged for 10 minutes at 300× g and resuspended in StemSpan media containing cytokines (e.g., CC100) to promote CD34^+ cell survival and incubated at 37° C. for 1, 6 and 24 hours. After the 1, 6 or 24 hour incubation, cells were centrifuged and resuspended in staining media containing the Lineage cocktail, 1-FITC, […], CXCR4(CD184)-PE, and incubated on ice for 15 minutes. Fresh staining media was then added to the cells, and the cells were centrifuged at 300 g for 10 minutes, twice. The stained cells were acquired on a Guava EasyCyte 8HT and analysis was performed using FloJo Software Package (Treestar).
CXCR4 cell-surface expression is important for stem cell homing to the bone marrow hematopoietic niche. […] Cells were treated for 2 hours at 37 or for 1 hour at 4° C. with either 10 μM 16,16-dimethyl PGE2 or DMSO control in StemSpan media. CXCR4 cell-surface protein expression was assessed 1, 6 and 24 hours after the end of treatment by flow cytometry.

CD34^+ cells = experiment: Whole genome expression arrays (Affymetrix GeneChip); assay type: cell-based, human
Description: Human umbilical cord blood and pre-isolated CD34^+ cells from human umbilical cord blood were purchased from Stem Cell Technologies Inc. (Vancouver, BC, Canada). Cells were incubated in either low molecular weight dextran with 5% human serum albumin media (LMD/5% HSA) or Stem Span media (Stem Cells Technology Inc.) for ex vivo treatment with 16,16-dimethyl PGE2. Total RNA was isolated from incubated cells using a Pico Pure RNA Isolation Kit (Molecular Devices, Sunnyvale, Calif.).
Biotinylated amplified RNA (aRNA) was prepared using the standard protocol for MessageAmp II aRNA Amplification Kit (Applied Biosystems/Ambion, Austin, Tex.) and the optional Second Round Amplification; the copy RNA (cRNA) was transcribed into biotin labeled aRNA using MessageAmp II Biotin Enhanced Kit (Applied Biosystems/Ambion, Austin, Tex.) according to the manufacturer's instructions. Biotin labeled aRNA was purified and fragmented according to the Applied Biosystems protocols. 20 μg of fragmented aRNA was hybridized to Human Genome U133 Plus 2.0 GeneChips (Affymetrix Inc., Santa Clara, Calif.) for 16 hrs at 45° C.
The GeneChips were washed and stained in the Affymetrix Fluidics Station 450 and scanned using the Affymetrix GeneChip Scanner 3000 7G. The image data were analyzed using Affymetrix Expression Console software and default analysis settings. GeneChip expression data were normalized by log scale robust multi-array analysis (RMA) and visualized in Spotfire for Genomics 3.1 (Tibco Spotfire, Palo Alto, Calif.). Pathway analysis was performed in MetaCore. (GeneGo, St. Joseph, Mich.).
GeneChip technology was used to determine the effects of time (incubation for 5, 15, 20, 30, 40, 60, 80, 100, 120, 180, or 240 minutes), temperature (incubation at 4° C., 25° C., or 37° C.), and final 16,16-dimethyl PGE2 concentration (0.1 μm, 1 μM, 10 μM, 50 μM, or 100 μM) on cellular gene expression.
Gene expression profiles were analyzed for CD34^+ cells incubated with 10 μM 16,16-dimethyl PGE2 at 37° C. for 5, 15, 30, 60, or 120 minutes. For incubation (e.g., treatment) periods less than 120 minutes, the cells were washed in media to remove the 16,16-dimethyl PGE2 and then the cells were incubated for the remaining period in media to allow time for changes in gene expression to take place (See FIG. 5).

[3] = tested on: Whole cord blood cells or CD34^+ cells; experiment: Colony Forming Unit-Cell assay (CFU-C); assay type: cell-based, human
Description: Colony Forming Unit-Cell assays (CFU-C) were performed using a methyl cellulose assay kit, MethoCult® GF H4034 (Stem Cell Technologies, Vancouver, CA). Whole cord blood cells or CD34^+ cells obtained from Stem Cell Technologies (Vancouver, Canada) were aliquoted equally in Eppendorf tubes and treated ex vivo at a range of 16,16-dimethyl PGE2 concentrations (10 μM to 100 μM) or DMSO control; temperatures (4° C., 22° C., or 37° C.) for 120 minutes in LMD/5% HSA media. After treatment, the cells were washed in LMD/5% HSA media and resuspended in Iscove's Media containing 2% Fetal Bovine Serum (FBS) (Stem Cell Technologies). Cells were then loaded into a MethoCult® assay tube, mixed, and plated in 35 mm tissue culture plates according to the manufacturer's instructions. Unless otherwise mentioned, the equivalent of 10,000 WCB cells and 250 CD34^+ cells were loaded into each plate.

CCCCC(C)(C)[C@H](O)/C=C/[C@H]1[C@H](O)CC(=O)[C@@H]1C/C=C\CCCC(=O)O [16,16-dimethyl PGE2]
number of hematopoietic progenitor cells (FIG. 19A) ([1]; 37° C. incubation): increases the number of hematopoietic progenitor cells | CFU-S12 number ([1]; 4° C. for 1 hour): 8.5±1.3 colonies | CFU-S12 number ([1]; 37° C. for 1 hour): 11.2±1.5 | CFU-S number compared to DMSO treated cells ([1]; murine bone marrow, 4° C. treatment): small increase in CFU-S number | CXCR4 expression after treatment at 4° C. ([2]; 4° C.): did not result in an increase in CXCR4 expression | CD34+ cord blood cells with detectable CXCR4 expression ([2]; 1 hour after treatment): 48% | CD34+ cord blood cells with detectable CXCR4 expression ([2]; 6 hours post-treatment): 34.7% | level of CXCR4 compared to DMSO treated cells ([2]; 24 hours post-treatment): substantially the same | signature gene expression changes after very short incubation (CD34^+ cells; 10 μM, 37° C., 5-15 minutes, assessed after 120 minutes total): minimal gene expression changes | incubation time after which gene expression changes were apparent (CD34^+ cells; 10 μM, 37° C., assessed after 120 minutes total): 30 min | genes downregulated (CD34^+ cells; 10 μM, 120 minutes, 37° C.): 243 genes | genes modulated at a statistically significant level, total (CD34^+ cells; 10 μM, 120 minutes, 37° C.): 608 genes | genes upregulated (CD34^+ cells; 10 μM, 120 minutes, 37° C.): 365 genes | fold increase in CXCR4 expression (CD34^+ cells; 10 μM, 120 minutes, 37° C., relative to DMSO/vehicle treated control): 18 fold | fold increase in CREM expression (FIG. 4) (CD34^+ cells; 10 μM, vs vehicle treated CD34+ cells): 8 fold | Fold change (increases) AREG (CD34^+ cells; Amphiregulin, CD34+ cells, 10 μM, 120 minutes, 37° C. vs DMSO): 23.32 fold | gene expression changes at 100 μM at 4° C. and 25° C. compared with 10 μM at 37° C. (CD34^+ cells; CD34+ cells): smaller gene expression changes | gene expression associated with apoptosis or cell death (CD34^+ cells; CD34+ cells incubated at 37° C.): no increase in gene expression associated with apoptosis or cell death; also recorded: no increase in gene expression of apopotosis or cell death associated genes | concentration at which the full gene expression signature was reproduced (CD34^+ cells; CD34+ cells, 120 minutes, 37° C., no further substantial changes above): 10 µM | Fold change (increases) CXCR4 (CD34^+ cells; CXC chemokine Receptor 4, CD34+ cells, 10 μM, 120 minutes, 37° C. vs DMSO): 7.33 fold | Fold change (increases) DUSP4 (CD34^+ cells; Dual specificity protein phosphatase 4, CD34+ cells, 10 μM, 120 minutes, 37° C. vs DMSO): 25.75 fold | Fold change (increases) FOSL2 (CD34^+ cells; Fos-related antigen 2, CD34+ cells, 10 μM, 120 minutes, 37° C. vs DMSO): 8.11 fold | Fold change (increases) GEM (CD34^+ cells; GTP-binding protein GEM, CD34+ cells, 10 μM, 120 minutes, 37° C. vs DMSO): 28.18 fold | Fold change (increases) HAS1 (CD34^+ cells; Hyaluronan synthase 1, CD34+ cells, 10 μM, 120 minutes, 37° C. vs DMSO): 55.83 fold | Fold change (increases) NR4A2 (CD34^+ cells; Nuclear receptor related 1 protein, CD34+ cells, 10 μM, 120 minutes, 37° C. vs DMSO): 22.30 fold | Fold change (increases) REN (CD34^+ cells; Renin, CD34+ cells, 10 μM, 120 minutes, 37° C. vs DMSO): 19.50 fold | CXCR4 RNA expression (CD34^+ cells; WCB or CD34+ cells, 10 μM, 2 hours, 37° C. vs DMSO or 10 μM 1 hour 4° C.): increase in CXCR4 RNA expression | Fold change (increases) CREM (CD34^+ cells; cAMP-responsive element modulator, CD34+ cells, 10 μM, 120 minutes, 37° C. vs DMSO): 12.90 fold | Fold change (increases) COL1A1 (CD34^+ cells; collagen, type I, alpha 1, CD34+ cells, 10 μM, 120 minutes, 37° C. vs DMSO): 10.50 fold | CFU-C colony formation (FIG. 19D) ([3]; CD34+ cells treated at 37° C. vs DMSO or 4° C.): increase in CFU-C colony formation | ability to form colony forming units (FIG. 11) ([3]; CD34+ cells, 10 μM, 120 minutes, 37° C. vs vehicle or 4° C.): does not decrease the ability of the cells to form colony forming units | proliferative potential (CFU-C) ([3]; whole cord blood cells or CD34+ cells, high temperatures, relatively long incubation periods vs other conditions): higher proliferative potential
